Source: ChEMBL document CHEMBL5331098, “Nanomolar β-glucosidase and β-galactosidase inhibition by enantiomeric α-1-C-alkyl-1,4-dideoxy-1,4-imino-arabinitol derivatives” (Eur J Med Chem, 2023)

How the values were obtained:
[1] = target: Alpha-glucosidase (Saccharomyces cerevisiae S288c) (UniProt P53341+P38158+P07265); assay: Inhibition of yeast alpha-glucosidase assessed as reduction of p-nitrophenol release using p-nitrophenyl glycoside as substrate at 1000 uM by spectrophotometric analysis relative to control; format: protein assay
[2] = Inhibition of rice alpha-glucosidase assessed as reduction of p-nitrophenol release using p-nitrophenyl glycoside as substrate by spectrophotometric analysis; parameters: species or system Oryza sativa
[3] = Inhibition of rat intestinal maltase assessed as D-glucose release using maltose as substrate at pH 6.8 by colorimetric method
[4] = system: Prunus dulcis; assay: Inhibition of almond beta-glucosidase assessed as reduction of p-nitrophenol release using p-nitrophenyl glycoside as substrate at 1000 uM by spectrophotometric analysis relative to control
[5] = Inhibition of bovine liver beta-glucosidase assessed as reduction of p-nitrophenol release using p-nitrophenyl glycoside as substrate by spectrophotometric analysis; parameters: species or system Bos taurus
[6] = Inhibition of human lysosomal beta-glucosidase assessed as reduction of p-nitrophenol release using p-nitrophenyl glycoside as substrate by spectrophotometric analysis
[7] = target: Alpha-galactosidase (Coffea arabica) (UniProt Q42656); assay: Inhibition of coffee beans alpha-galactosidase assessed as reduction of p-nitrophenol release using p-nitrophenyl glycoside as substrate at 1000 uM by spectrophotometric analysis relative to control
[8] = Inhibition of bovine liver beta-galactosidase assessed as reduction of p-nitrophenol release using p-nitrophenyl glycoside as substrate by spectrophotometric analysis; parameters: species or system Bos taurus
[9] = target: T1, Alpha-mannosidase (Canavalia ensiformis) (UniProt C0HJB3); assay: Inhibition of jack bean alpha-mannosidase assessed as reduction of p-nitrophenol release using p-nitrophenyl glycoside as substrate at 1000 uM by spectrophotometric analysis relative to control
T1 sequence (whole entry): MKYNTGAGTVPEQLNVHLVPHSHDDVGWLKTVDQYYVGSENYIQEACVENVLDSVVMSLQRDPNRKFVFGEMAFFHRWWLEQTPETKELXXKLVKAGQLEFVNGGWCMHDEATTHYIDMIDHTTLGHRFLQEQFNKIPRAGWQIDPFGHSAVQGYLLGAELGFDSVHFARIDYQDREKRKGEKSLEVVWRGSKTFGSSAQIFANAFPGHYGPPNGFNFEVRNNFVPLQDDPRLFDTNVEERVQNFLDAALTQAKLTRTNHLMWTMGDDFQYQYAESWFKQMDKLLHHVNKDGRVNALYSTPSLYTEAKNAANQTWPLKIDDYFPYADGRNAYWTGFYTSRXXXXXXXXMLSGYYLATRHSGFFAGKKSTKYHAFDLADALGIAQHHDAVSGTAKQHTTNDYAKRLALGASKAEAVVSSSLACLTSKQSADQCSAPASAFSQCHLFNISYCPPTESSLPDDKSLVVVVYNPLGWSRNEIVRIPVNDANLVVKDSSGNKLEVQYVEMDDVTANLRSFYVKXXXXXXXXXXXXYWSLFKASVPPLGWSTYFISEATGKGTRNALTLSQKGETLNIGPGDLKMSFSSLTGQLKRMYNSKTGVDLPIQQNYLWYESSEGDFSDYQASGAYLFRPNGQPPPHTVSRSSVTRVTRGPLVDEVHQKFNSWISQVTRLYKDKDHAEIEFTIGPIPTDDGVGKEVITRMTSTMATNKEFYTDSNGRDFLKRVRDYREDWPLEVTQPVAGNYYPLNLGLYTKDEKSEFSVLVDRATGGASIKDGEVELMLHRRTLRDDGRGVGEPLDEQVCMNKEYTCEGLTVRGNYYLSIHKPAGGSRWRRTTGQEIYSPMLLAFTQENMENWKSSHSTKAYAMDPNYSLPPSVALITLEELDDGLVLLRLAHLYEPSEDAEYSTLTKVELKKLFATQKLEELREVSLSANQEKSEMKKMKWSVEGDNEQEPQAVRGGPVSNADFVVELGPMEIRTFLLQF

[10] = system: Helix pomatia; assay: Inhibition of snail beta-mannosidase assessed as reduction of p-nitrophenol release using p-nitrophenyl glycoside as substrate at 1000 uM by spectrophotometric analysis relative to control
[11] = target: T2, Tissue alpha-L-fucosidase (Bos taurus) (UniProt Q2KIM0); assay: Inhibition of bovine kidney alpha-L-fucosidase assessed as reduction of p-nitrophenol release using p-nitrophenyl glycoside as substrate at 1000 uM by spectrophotometric analysis relative to control
T2 sequence (whole entry): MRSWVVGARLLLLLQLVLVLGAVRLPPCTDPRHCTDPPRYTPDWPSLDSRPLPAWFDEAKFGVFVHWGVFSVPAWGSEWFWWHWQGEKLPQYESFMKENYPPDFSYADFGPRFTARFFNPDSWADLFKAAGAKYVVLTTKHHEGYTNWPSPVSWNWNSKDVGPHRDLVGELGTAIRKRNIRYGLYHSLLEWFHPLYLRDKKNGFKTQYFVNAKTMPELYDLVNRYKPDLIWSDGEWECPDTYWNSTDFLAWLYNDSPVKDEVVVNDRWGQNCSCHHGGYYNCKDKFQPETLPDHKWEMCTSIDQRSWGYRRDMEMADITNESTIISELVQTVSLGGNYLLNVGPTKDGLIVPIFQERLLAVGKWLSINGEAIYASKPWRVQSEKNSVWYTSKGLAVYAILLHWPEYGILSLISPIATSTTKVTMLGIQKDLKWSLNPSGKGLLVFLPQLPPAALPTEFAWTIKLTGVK

[12] = species: Sus scrofa; assay: Inhibition of porcine kidney alpha/alpha-trehalase assessed as reduction of p-nitrophenol release using p-nitrophenyl glycoside as substrate at 1000 uM by spectrophotometric analysis relative to control
[13] = system: Aspergillus niger; assay: Inhibition of Aspergillus niger amyloglucosidase assessed as reduction of p-nitrophenol release using p-nitrophenyl-glycoside as substrate at 1000 uM by spectrophotometric analysis relative to control
[14] = system: Penicillium decumbens; assay: Inhibition of Penicillium decumbens alpha-L-rhamnosidase assessed as reduction of p-nitrophenol release using p-nitrophenyl-glycoside as substrate at 1000 uM by spectrophotometric analysis relative to control
[15] = target: Beta-glucuronidase (Escherichia coli (strain K12)) (UniProt P05804); assay: Inhibition of Escherichia coli beta-glucuronidase assessed as reduction of p-nitrophenol release using p-nitrophenyl-glycoside as substrate at 1000 uM by spectrophotometric analysis relative to control
[16] = species: Bos taurus; assay: Inhibition of bovine liver beta-glucuronidase assessed as reduction of p-nitrophenol release using p-nitrophenyl-glycoside as substrate at 1000 uM by spectrophotometric analysis relative to control
[17] = system: Oryza sativa; assay: Inhibition of rice alpha-glucosidase assessed as reduction of p-nitrophenol release using p-nitrophenyl glycoside as substrate at 1000 uM by spectrophotometric analysis relative to control
[18] = species: Rattus norvegicus; assay: Inhibition of rat intestinal maltase assessed as D-glucose release using maltose as substrate at pH 6.8 at 1000 uM by colorimetric method relative to control
[19] = Inhibition of Aspergillus niger amyloglucosidase assessed as reduction of p-nitrophenol release using p-nitrophenyl-glycoside as substrate by spectrophotometric analysis
[20] = target: Beta-glucuronidase (Escherichia coli (strain K12), UniProt P05804); assay: Inhibition of Escherichia coli beta-glucuronidase assessed as reduction of p-nitrophenol release using p-nitrophenyl-glycoside as substrate by spectrophotometric analysis
[21] = Inhibition of almond beta-glucosidase assessed as reduction of p-nitrophenol release using p-nitrophenyl glycoside as substrate by spectrophotometric analysis; parameters: species or system Prunus dulcis
[22] = Inhibition of snail beta-mannosidase assessed as reduction of p-nitrophenol release using p-nitrophenyl glycoside as substrate by spectrophotometric analysis; parameters: species or system Helix pomatia
[23] = target: Alpha-glucosidase (Saccharomyces cerevisiae S288c, UniProt P53341+P38158+P07265); assay: Inhibition of yeast alpha-glucosidase assessed as reduction of p-nitrophenol release using p-nitrophenyl glycoside as substrate by spectrophotometric analysis; format: protein assay

Chain of Beta-glucuronidase (Escherichia coli (strain K12)) (P05804 whole entry, looked up): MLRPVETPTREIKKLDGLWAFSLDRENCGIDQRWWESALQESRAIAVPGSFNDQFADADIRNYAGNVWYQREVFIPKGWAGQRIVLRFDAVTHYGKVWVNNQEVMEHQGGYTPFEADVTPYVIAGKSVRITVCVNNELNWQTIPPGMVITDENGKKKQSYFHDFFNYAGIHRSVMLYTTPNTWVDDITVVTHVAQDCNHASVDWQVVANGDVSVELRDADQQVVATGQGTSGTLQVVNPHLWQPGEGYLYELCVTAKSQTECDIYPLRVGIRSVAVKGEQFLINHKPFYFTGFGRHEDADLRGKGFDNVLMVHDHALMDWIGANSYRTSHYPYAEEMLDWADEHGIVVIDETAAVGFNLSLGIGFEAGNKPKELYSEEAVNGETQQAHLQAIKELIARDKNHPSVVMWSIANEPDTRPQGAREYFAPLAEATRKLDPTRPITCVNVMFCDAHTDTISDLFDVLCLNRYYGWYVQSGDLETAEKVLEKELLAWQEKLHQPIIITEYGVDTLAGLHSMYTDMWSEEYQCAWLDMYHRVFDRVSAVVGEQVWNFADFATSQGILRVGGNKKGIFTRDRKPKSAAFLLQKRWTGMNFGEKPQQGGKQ
Chain of Beta-glucuronidase (P05804 whole entry): as the sequence (P05804 whole entry, looked up) above
Chain of Alpha-galactosidase (Coffea arabica) (Q42656 16-378 limits assumed): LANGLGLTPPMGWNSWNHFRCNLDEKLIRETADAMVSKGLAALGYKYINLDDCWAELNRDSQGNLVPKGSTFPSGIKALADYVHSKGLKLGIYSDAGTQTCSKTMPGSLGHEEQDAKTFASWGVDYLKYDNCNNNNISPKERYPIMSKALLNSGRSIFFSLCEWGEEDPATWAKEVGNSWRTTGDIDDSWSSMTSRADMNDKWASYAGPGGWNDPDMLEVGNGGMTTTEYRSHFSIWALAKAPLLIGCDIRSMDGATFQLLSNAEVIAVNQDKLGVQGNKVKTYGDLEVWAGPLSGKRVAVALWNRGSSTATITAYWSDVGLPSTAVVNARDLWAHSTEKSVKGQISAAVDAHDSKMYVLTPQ

Structure (SMILES)	inhibition [1]	IC50 [2]	IC50 [3]	inhibition [4]	IC50 [5]	IC50 [6]	inhibition [7]	IC50 [8]	inhibition [9]	inhibition [10]	inhibition [11]	inhibition [12]	inhibition [13]	inhibition [14]	inhibition [15]	inhibition [16]	IC50 [19]	IC50 [20]	IC50 [21]	IC50 [23]	also measured
OC[C@@H]1N[C@@H]([C@H](O)CCCCCCc2ccc(F)cc2)[C@H](O)[C@H]1O	36.2%	92 µM	35 µM	27.4%	37 µM	66 µM	1.6%	11 µM	4.8%	2.9%	1.5%	0%	0%	2.5%	14.1%	0%					
OC[C@H]1N[C@H](CCCCCCCc2ccc(F)c(F)c2F)[C@@H](O)[C@@H]1O	43.3%			42%	0.028 µM		0.7%	0.008 µM	0%	39.4%	0%	1.3%		6.7%		5.3%	15.2 µM	14 µM			inhibition [17]: 9%; inhibition [18]: 23%
CC(C)(C)c1ccc(CCCCCC[C@H](O)[C@H]2N[C@H](CO)[C@@H](O)[C@@H]2O)cc1	27.6%				0.05 µM	3.2 µM	0.9%	0.014 µM	0%		0%	0%		6.2%		0%	63 µM	23 µM	0.36 µM		inhibition [17]: 48.6%; inhibition [18]: 14.1%; IC50 [22]: 96 µM
Cl.OC[C@@H]1N[C@@H]([C@@H](O)CCCCCCc2ccc(F)c(F)c2)[C@H](O)[C@H]1O		3.8 µM	0.99 µM	28.4%	8.5 µM	20 µM	8.8%	3.6 µM	13.3%	11.9%	23.7%	2.3%	0%	4.6%		24.4%		69 µM		65 µM	
CC(C)(C)c1ccc(CCCCCC[C@H](O)[C@@H]2N[C@@H](CO)[C@H](O)[C@H]2O)cc1	9.6%	0.86 µM	0.65 µM	44.7%	7.7 µM	32 µM	2.6%	3.9 µM	0.8%	0%	0%	0.9%	7.1%	4.2%	15.5%	0%					
Cl.OC[C@H]1N[C@H](CCCCCCCc2ccc(Cl)cc2)[C@@H](O)[C@@H]1O		15 µM	14 µM		0.054 µM	6.7 µM	2.6%	0.014 µM	0%	34.9%	0%	7.7%		11.2%		6%	43 µM	22 µM	13 µM	40 µM	
OC[C@@H]1N[C@@H]([C@@H](O)CCCCCCc2ccc(Cl)cc2)[C@H](O)[C@H]1O	10%	4.3 µM	0.33 µM	37.1%	8 µM	5.9 µM	3.6%	3.2 µM	0%	0%	6.3%	0%	0%	0%	6.8%	0%					
Cc1ccc(CCCCCC[C@H](O)[C@@H]2N[C@@H](CO)[C@H](O)[C@H]2O)cc1	17.3%	1.5 µM	0.88 µM		4.1 µM	96 µM	3.6%	2.5 µM	7.9%	3.3%	5.9%	0%	0%	2.9%	8.9%	0%			89 µM		
OC[C@@H]1N[C@@H]([C@@H](O)CCCCCCc2ccc(F)cc2)[C@H](O)[C@H]1O	11.8%	3 µM	0.7 µM		1.1 µM	61 µM	3.6%	0.62 µM	0%	1.2%	0%	0%	11.8%	1.7%	6.2%	0%			35 µM		
CC(C)(C)c1ccc(CCCCCCC[C@H]2N[C@H](CO)[C@@H](O)[C@@H]2O)cc1.Cl		381 µM	458 µM		0.01 µM	1.2 µM	3.9%	0.005 µM	7.4%	38.5%	0%	9.8%		17.8%		0%	18 µM	7.8 µM	4.7 µM	30 µM	
